This passage reports concentration results from ChEMBL document CHEMBL4387754, “Chemical modification-mediated optimisation of bronchodilatory activity of mepenzolate, a muscarinic receptor antagonist with anti-inflammatory activity” (Bioorg Med Chem, 2019).

The nature of data set [1]: Plasma concentration in ICR mouse at 7.5 mg/kg, iv measured after 1 min by RP-HPLC analysis. In kind it is ADME, organism-based.
A short description of data set [2]: Plasma concentration in ICR mouse at 10 mg/kg administered intratracheally measured after 1 min by RP-HPLC analysis. In kind it is ADME, organism-based. Conditions: inhaled or intranasal.

With `C[N+]1(C)[C@@H]2C[C@@H](OC(=O)C(O)(c3cccs3)c3cccs3)C[C@H]1[C@@H]1O[C@@H]12.[Br-]`, the concentration at 1 min in data set [1] is 40000 ng/mL; in data set [2] it was 3000 ng/mL.
